Experiment [1] concerns Spontaneously hypertensive rats (SHR). Briefly: Acute efficacy in spontaneously hypertensive rats (SHR). The class given is in vivo, rat. From the text:
Acute Efficacy in Spontaneously Hypertensive Rats (SHR)
Spontaneously hypertensive rats (SHR, male, Charles River) were implanted with DSI TA11PA-C40 telemetry device (Data Sciences, Inc., St. Paul, Minn.) under isoflurane or ketamine/metomidine anesthesia. The telemetry unit catheter was inserted into the descending aorta via the femoral artery and the telemetry device was implanted subcutaneously in the left flank area. Animals were allowed to recover from surgery for 14 days before the start of any studies. Blood pressure, heart rate, and activity signals from conscious, freely moving rats were recorded continuously for 30 seconds every 10 minutes. On the day prior to administration of compound, a single oral dose of vehicle (10% transcutol/20% Cremophor/70% water) was administered to all animals to establish baseline control data. The blood pressure lowering efficacy of compound (PO) or vehicle was evaluated following a single oral gavage. Data were collected as hourly averages, and changes in blood pressure were calculated by subtracting control baseline data on an hourly basis. Animals were maintained on normal diet with a 12 hour light-dark cycle.
Maximum peak decreases of systolic blood pressure (SBP) in SHR at a particular P.O. dose (mpk milligrams per kilogram) for the following Example compounds are provided.

Experiment [2] concerns the target human recombinant sGC enzyme (Homo sapiens (Human), UniProt Q02108+Q02153). Briefly: Size Exclusion Chromatography (SEC) competition binding assay using [3H] Ex-77B as the radioligand. To be noted: [3H] Ex-77B radioligand, 24 hours at 37° C. Summed up: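 Recombinant human sGC binding measured by competition against tritiated Ex-77B radioligand, with non-specific binding defined by 1 μM unlabeled Ex-77B.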

In a further experiment the target is sGC α1/β1 heterodimer (Homo sapiens (Human), UniProt Q02108+Q02153). Briefly: Cell-based sGC functional assay (cyclic GMP assay for sGC activator: CASA assay). To be noted: CHO-K1/sGC cells; for Emax: CHO-K1, activity expressed as percentage of compound A (standard), read-out: % Activation; for EC50: inflection point, 4P fit, read-out: IP; for % Activation: activity expressed as percentage of compound A (standard). Further details: % Activation: concentration or dose not given beside the values. Summed up:
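CHO-K1 cells stably expressing human sGC α1/β1 were pre-incubated 30 min at 25° C with or without 1 μM DETA-NO, then exposed to compound for 1 hr at 37° C with 0.5 mM IBMX and 2.5% DMSO final. Intracellular cGMP was measured by HTRF, expressed as % of reference sGC-HDA maximum; inflection point and maximum fold induction came from 4-parameter fits.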

13 compounds from patent US10030027B2, “Soluble guanylate cyclase stimulators” (MERCK SHARP & DOHME CORP., priority 2015, dated 2018) can be followed below.

Take `CC(C)(Cc1cccc(C2(C)C(=O)Nc3nc(-c4nn(CCC(F)(F)C(F)(F)F)c5cc(Cl)ccc45)nc(N)c32)c1)C(=O)O` (stereo not drawn) [Example 27B, 3-(3-{4-amino-2-[6-chloro-1-(3,3,4,4,4-pentafluorobutyl)-1H-indazol-3-yl]-5-methyl-6-oxo-6,7-dihydro-5H-pyrrolo[2,3-d]pyrimidin-5-yl}phenyl)-2,2-dimethylpropanoic acid]: in experiment [1] (Dose P.O. 1 mpk), the “Category: maximum peak decrease of systolic blood pressure (SBP) in SHR” value (shortened to “Category: maximum peak decrease”) was “A (decrease in SBP in SHRs 5-25 mmHg)”. For the same compound, in experiment [2], the Ki was found to be 0.221 nM. Further, at sGC α1/β1 heterodimer, the Emax was 120% and the EC50 came out at 331 nM.

For the compound `CC(C)(Cc1ccc(C2(C)C(=O)Nc3nc(-c4nn(CCC(F)(F)C(F)(F)F)c5ncccc45)nc(N)c32)cc1)C(=O)O` (stereo not drawn) [Example 9B], the “Category: maximum peak decrease” value in experiment [1] (Dose P.O. 3 mpk) is listed as “A (decrease in SBP in SHRs 5-25 mmHg)”. The Ki in experiment [2] is 0.374 nM. At sGC α1/β1 heterodimer, the Emax was found to be 118% and the EC50 is 1370 nM.

For `CC1(c2cccc(CCC(=O)O)c2)C(=O)Nc2nc(-c3nn(Cc4ccccc4F)c4ncccc34)nc(N)c21` (stereo not drawn) [Example 22A, 3-(3-{4-amino-2-[1-(2-fluorobenzyl)-1H-pyrazolo[3,4-b]pyridin-3-yl]-5-methyl-6-oxo-6,7-dihydro-5H-pyrrolo[2,3-d]pyrimidin-5-yl}phenyl)propanoic acid], the “Category: maximum peak decrease” value in experiment [1] (Dose P.O. 3 mpk) is given as “A (decrease in SBP in SHRs 5-25 mmHg)”. Moreover, the Ki in experiment [2] worked out at 0.078 nM. For the same compound, on sGC α1/β1 heterodimer, the Emax was 91% and the EC50 was found to be 423 nM.

Consider `C[C@@]1(c2ccc(CCC(=O)O)cc2)C(=O)Nc2nc(-c3nn(CC4CCCCC4)c4cc(Cl)ccc34)nc(N)c21` [Example 44B, (S)-3-(4-{4-amino-2-[6-chloro-1-(cyclohexylmethyl)-1H-indazol-3-yl]-5-methyl-6-oxo-6,7-dihydro-5H-pyrrolo[2,3-d]pyrimidin-5-yl}phenyl)propanoic acid], for which, in experiment [1] (Dose P.O. 3 mpk), the “Category: maximum peak decrease” value was “C (decrease in SBP in SHRs>40 mmHg)”. Besides, the Ki in experiment [2] was 0.123 nM. Besides, at sGC α1/β1 heterodimer, the Emax stood at 127% and the EC50 came to 245 nM.

In the case of `CC(C)(C)CCCn1nc(-c2nc(N)c3c(n2)NC(=O)[C@@]3(C)c2ccc(CCC(=O)O)cc2)c2ccc(Cl)cc21` [Example 52B, (S)-3-(4-{4-amino-2-[6-chloro-1-(4,4-dimethylpentyl)-1H-indazol-3-yl]-5-methyl-6-oxo-6,7-dihydro-5H-pyrrolo[2,3-d]pyrimidin-5-yl}phenyl)propanoic acid], the “Category: maximum peak decrease” value in experiment [1] (Dose P.O. 3 mpk) is listed as “A (decrease in SBP in SHRs 5-25 mmHg)”. The Ki in experiment [2] stood at 0.413 nM. Also, at sGC α1/β1 heterodimer, the Emax turned out to be 109% and the EC50 was determined as 504 nM.

`CCCCn1nc(-c2nc(N)c3c(n2)NC(=O)[C@@]3(C)c2ccc(CCC(=O)O)cc2)c2ccc(Cl)cc21` [Example 38B, (S)-3-{4-[4-amino-2-(1-butyl-6-chloro-1H-indazol-3-yl)-5-methyl-6-oxo-6,7-dihydro-5H-pyrrolo[2,3-d]pyrimidin-5-yl]phenyl}propanoic acid]: in experiment [1] (Dose P.O. 3 mpk), the “Category: maximum peak decrease” value is recorded as “A (decrease in SBP in SHRs 5-25 mmHg)”. For the same compound, the Ki in experiment [2] was found to be 0.145 nM. At sGC α1/β1 heterodimer, the Emax amounted to 98% and the EC50 stood at 220 nM.

On to `CC(Cc1ccc(C2(C)C(=O)Nc3nc(-c4nn(CCC(F)(F)C(F)(F)F)c5cc(Cl)ccc45)nc(N)c32)cc1)C(=O)O` (single isomer, unassigned) [Example 34AA, 3-(4-{4-amino-2-[6-chloro-1-(3,3,4,4,4-pentafluorobutyl)-1H-indazol-3-yl]-5-methyl-6-oxo-6,7-dihydro-5H-pyrrolo[2,3-d]pyrimidin-5-yl}phenyl)-2-methylpropanoic acid], for which the “Category: maximum peak decrease” value in experiment [1] (Dose P.O. 3 mpk) is “A (decrease in SBP in SHRs 5-25 mmHg)”. The Ki in experiment [2] was determined as 0.138 nM. At sGC α1/β1 heterodimer, the “% Activation” value is 81% and the EC50 was found to be 437 nM.

In the case of `CC(C)(Cc1csc([C@]2(C)C(=O)Nc3nc(-c4nn(CCCC(F)(F)F)c5nc(Cl)ccc45)nc(N)c32)n1)C(=O)O` [Example 89B, (S)-3-(2-{4-amino-2-[6-chloro-1-(4,4,4-trifluorobutyl)-1H-pyrazolo[3,4-b]pyridin-3-yl]-5-methyl-6-oxo-6,7-dihydro-5H-pyrrolo[2,3-d]pyrimidin-5-yl}-1,3-thiazol-4-yl)-2,2-dimethylpropanoic acid], the “Category: maximum peak decrease” value in experiment [1] (Dose P.O. 3 mpk) is on record as “B (decrease in SBP in SHRs 25-40 mmHg)”. In addition, in experiment [2], the Ki was determined as 0.343 nM. In addition, at sGC α1/β1 heterodimer, the Emax is 108% and the EC50 worked out at 442 nM.

In the case of `CCCCn1nc(-c2nc(N)c3c(n2)NC(=O)C3(C)c2nc(CC(C)(C)C(=O)O)cs2)c2cccnc21` (stereo not drawn) [Example 86A, 3-{2-[4-amino-2-(1-butyl-1H-pyrazolo[3,4-b]pyridin-3-yl)-5-methyl-6-oxo-6,7-dihydro-5H-pyrrolo[2,3-d]pyrimidin-5-yl]-1,3-thiazol-4-yl}-2,2-dimethylpropanoic acid], the “Category: maximum peak decrease” value in experiment [1] (Dose P.O. 1 mpk) is reported as “A (decrease in SBP in SHRs 5-25 mmHg)”. Besides, in experiment [2], the Ki stood at 0.323 nM. Moreover, at sGC α1/β1 heterodimer, the Emax stood at 102% and the EC50 turned out to be 247 nM.

Regarding `C[C@@]1(c2ccc(CCC(=O)O)cc2)C(=O)Nc2nc(-c3nn(CC45CC6CC(CC(C6)C4)C5)c4cc(Cl)ccc34)nc(N)c21` [Example 70B, (S)-3-(4-{2-[1-(adamantan-1-ylmethyl)-6-chloro-1H-indazol-3-yl]-4-amino-5-methyl-6-oxo-6,7-dihydro-5H-pyrrolo[2,3-d]pyrimidin-5-yl}phenyl)propanoic acid], the “Category: maximum peak decrease” value in experiment [1] (Dose P.O. 3 mpk) is on record as “A (decrease in SBP in SHRs 5-25 mmHg)”. Besides, at sGC α1/β1 heterodimer, the Emax amounted to 120% and the EC50 was found to be 649 nM.

For the compound `CC(Cc1ccc(C2(C)C(=O)Nc3nc(-c4nn(CCC(F)(F)C(F)(F)F)c5cc(Cl)ccc45)nc(N)c32)cc1)C(=O)O` (single isomer, unassigned) [Example 34AB, 3-(4-{4-amino-2-[6-chloro-1-(3,3,4,4,4-pentafluorobutyl)-1H-indazol-3-yl]-5-methyl-6-oxo-6,7-dihydro-5H-pyrrolo[2,3-d]pyrimidin-5-yl}phenyl)-2-methylpropanoic acid], in experiment [1] (Dose P.O. 1 mpk), the “Category: maximum peak decrease” value is on record as “A (decrease in SBP in SHRs 5-25 mmHg)”. For the same compound, the Ki in experiment [2] amounted to 0.231 nM. At sGC α1/β1 heterodimer, the “% Activation” value was found to be 115% and the EC50 turned out to be 771 nM.

In the case of `Cc1cc(C2(C)C(=O)Nc3nc(-c4nn(CCC(F)(F)C(F)(F)F)c5cc(Cl)ccc45)nc(N)c32)ccc1CCC(=O)O` (stereo not drawn) [Example 121B, 3-(4-{4-Amino-2-[6-chloro-1-(3,3,4,4,4-pentafluorobutyl)-1H-indazol-3-yl]-5-methyl-6-oxo-6,7-dihydro-5H-pyrrolo[2,3-d]pyrimidin-5-yl}-2-methylphenyl)propanoic acid], the “Category: maximum peak decrease” value in experiment [1] (Dose P.O. 3 mpk) is reported as “A (decrease in SBP in SHRs 5-25 mmHg)”. The Ki in experiment [2] is 0.234 nM. Besides, on sGC α1/β1 heterodimer, the Emax was 118% and the EC50 stood at 238 nM.

Consider `C[C@@]1(c2ccc(CCC(=O)O)cc2)C(=O)Nc2nc(-c3nn(Cc4ccccc4F)c4ccccc34)nc(N)c21` [Example 76B, (S)-3-(4-{4-Amino-2-[1-(2-fluorobenzyl)-1H-indazol-3-yl]-5-methyl-6-oxo-6,7-dihydro-5H-pyrrolo[2,3-d]pyrimidin-5-yl}phenyl)propanoic acid], for which, in experiment [1] (Dose P.O. 3 mpk), the “Category: maximum peak decrease” value is given as “B (decrease in SBP in SHRs 25-40 mmHg)”.
